Source: patent publication US6855836B2, “17-Methylene steroids, process for their production and pharmaceutical compositions that contain these compounds” (Jenapharm GmbH & Co. KG, priority 2000, dated 2005)

How the values were obtained:
[1] = biological target: T1, 5α-Reductase-Type 2 (Homo sapiens, UniProt P31213); assay: 5α-Reductase-type 2-activity in genital dermal homogenates; assay type: biochemical; details: optimized conditions at pH 5.5
T1 construct: 5α-Reductase-Type 2-Activity in Genital Dermal Homogenates; from tissue; host or cells: genital dermal (skin) homogenate
T1 sequence (P31213 1-254): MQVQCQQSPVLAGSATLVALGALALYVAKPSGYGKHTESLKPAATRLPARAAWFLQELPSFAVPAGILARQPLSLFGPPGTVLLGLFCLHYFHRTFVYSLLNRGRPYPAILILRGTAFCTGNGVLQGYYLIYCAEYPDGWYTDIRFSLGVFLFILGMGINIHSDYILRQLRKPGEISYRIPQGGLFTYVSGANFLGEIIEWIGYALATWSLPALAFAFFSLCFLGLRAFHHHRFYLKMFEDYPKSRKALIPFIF
Text: (§1) Data for 5α-reductase-type 2-activity in genital dermal homogenates and in vivo data for gestagenic activity are presented by way of example in Tables 1 and 2 below.

[2] = biological target: T2, Progesterone-receptor (Oryctolagus cuniculus, UniProt P06186); assay: Progesterone-receptor binding to uterus-cytosol, tracer 3H-ORG 2058; details: rabbits, primed, 0-4° C., 18 hours, reference progesterone = 100%
T2 construct: from tissue; host or cells: uterus cytosol of primed rabbits
T2 sequence (P06186 1-930): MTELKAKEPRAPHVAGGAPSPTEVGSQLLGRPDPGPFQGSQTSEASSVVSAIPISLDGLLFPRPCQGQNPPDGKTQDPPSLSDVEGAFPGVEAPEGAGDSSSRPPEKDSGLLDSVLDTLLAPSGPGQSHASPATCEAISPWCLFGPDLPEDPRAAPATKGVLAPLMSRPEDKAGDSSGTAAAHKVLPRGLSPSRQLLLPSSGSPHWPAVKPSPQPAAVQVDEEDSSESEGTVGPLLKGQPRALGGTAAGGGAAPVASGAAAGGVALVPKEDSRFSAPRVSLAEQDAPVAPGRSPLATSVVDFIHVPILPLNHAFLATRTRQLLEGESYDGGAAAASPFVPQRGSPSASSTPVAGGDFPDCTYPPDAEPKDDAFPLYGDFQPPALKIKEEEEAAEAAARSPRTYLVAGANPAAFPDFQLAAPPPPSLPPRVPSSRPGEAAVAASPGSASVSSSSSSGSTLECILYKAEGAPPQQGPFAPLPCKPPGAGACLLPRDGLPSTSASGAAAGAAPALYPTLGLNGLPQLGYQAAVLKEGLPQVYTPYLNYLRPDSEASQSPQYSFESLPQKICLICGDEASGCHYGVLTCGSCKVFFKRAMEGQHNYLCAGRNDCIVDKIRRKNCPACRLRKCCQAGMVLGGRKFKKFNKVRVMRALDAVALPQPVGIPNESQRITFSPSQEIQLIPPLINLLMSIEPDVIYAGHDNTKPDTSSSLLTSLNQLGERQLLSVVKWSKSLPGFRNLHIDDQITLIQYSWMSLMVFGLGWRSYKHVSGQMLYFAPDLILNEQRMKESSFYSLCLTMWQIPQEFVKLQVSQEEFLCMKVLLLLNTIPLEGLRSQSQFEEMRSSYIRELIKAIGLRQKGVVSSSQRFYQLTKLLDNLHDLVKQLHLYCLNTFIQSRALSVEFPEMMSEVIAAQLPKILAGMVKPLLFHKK

[3] = tested on: pregnancy maintenance; assay: Mouse pregnancy maintenance test after s.c. administration (gestagenic activity); assay type: in vivo
Text: as §1

**Q.** With `C[C@]12CC[C@H]3[C@@H](CCC4=C(Cl)C(=O)CC[C@@H]43)[C@@H]1CC/C2=C\Cl` [Compound 1, E-17-Chloromethylene-4-chloro-estr-4-en-3-one] as the molecule, how does the IC50 [1] read?
**A.** 250 nM

**Q.** What about the “PR, Progesterone = 100% (progesterone-receptor binding)” value [2] of the same molecule?
**A.** 60%

**Q.** And the Pregnancy rate achieved ([3]; 0.1 mg/animal/day s.c.)?
**A.** 0/5

**Q.** What about the Pregnancy rate achieved ([3]; 1.0 mg/animal/day s.c.) of the same molecule?
**A.** 5/5
